Measured values taken from patent US20160186068A1, “METHODS AND SYSTEMS FOR PROCESSING CELLULOSIC BIOMASS” (SHELL OIL COMPANY, priority 2014, published 2016).
Read-outs that look alike come from different tables or passages of the source. Blank lines part the entries; values can stand above or below the molecule they belong to.

Legend:
[1] = MIBC re-extraction (step #2) of aqueous lower layer from initial MIBC extraction (Example 4); type: physicochemical; conditions: for Extr #2 % extract / Extr #2 K UL/LL: MIBC re-extraction (step #2); for Extr #2 K UL/LL / Extr #2 LL-wt %: one part MIBC by weight, 25° C.; for Extr #2 LL-wt %: lower layer after MIBC re-extraction (step #2); for extraction from aqueous lower layer by MIBC (in words): MIBC re-extraction, GC results
[2] = as above; type: physicochemical; conditions: for Extr #1 K UL/LL: initial (step #1) MIBC extraction; for Extr #1 LL-wt %: lower aqueous layer after initial (step #1) MIBC extraction
Method: One part of the upper organic-rich upper layer from Example 3 was removed prior to distillation, extracted with one part by weight of MIBC solvent, by shaking for 3 minutes in a vial via mechanical shaker, followed by allowing to phase separate overnight at 25° C.
Extraction efficiency as measured by the partition coefficient K increased with increasing carbon number for the light alcohol. Glycols, including ethylene glycol (EG) and propylene glycol (PG) were not extracted.

[3] = Comparison of extraction solvents on simulated reaction product mixture (Examples 5A-5D); conditions: for Kow: one part by weight, 2 weight percent each component in water, 25° C.
Method: The reaction product mixture was extracted with one part of by weight solvent, with mixing for a minimum of three minutes, followed by phase separation overnight at 25° C.

[4] = MIBC extraction of reactor product: partition between upper MIBC-rich organic layer and lower aqueous layer (Example 3)
Method: (§1) The injector temperature was set at 250° C., and the detector temperature was set at 300° C.
Partition coefficients for the concentration by weigh in the upper MIBC-rich organic layer, vs. the lower aqueous layer, are reported in Table 2.

[5] = Toluene extraction of reactor product: partitioning between upper organic and lower aqueous phases (Example 2); conditions: for Kow UL/LL, partition coefficients for toluene extraction: toluene extractant, stirred at 150° C. for 2 hours, upper toluene-rich phase / lower aqueous-rich phase
Method: as §1
Reaction cycles entailed 1 hour at 160° C., followed by 1 hour at 190° C., followed by 3 hours at 240° C. Six cycles of wood addition were effected, which simulated the first hydrothermal reaction. This was followed by heating overnight at 270° C. under 52 bar of H2, which simulated the second hydrothermal reaction to further hydrotreat and complete conversion of various compounds in the first reaction product, which the examples may refer to as intermediates.
Stirring was then stopped, and the reactor allowed to cool. […] Catalyst was left on the reactor bottom.

[6] = Solubility of MPP in deionized water (Example 5E solution); type: physicochemical; conditions: 1 wt % solution, room temperature, judged by turbidity
[7] = Extraction of phenols from 1% aqueous solution with toluene or heptane (Examples 5E-5H)
[8] = Ex 5A, toluene extraction solvent
[9] = Ex 5C, 1:1 MPP/MIBC extraction solvent
[10] = Ex 5D, meta-cresol extraction solvent
[11] = Example 5C, MPP/MIBC extraction solvent
[12] = concentration by weight in upper MIBC-rich organic layer vs. lower aqueous layer
[13] = Example 5F, 1% MPP in water extracted with heptane
[14] = Example 5B, MPP as extraction solvent
[15] = Example 5G, 1% solution of m-cresol extracted with toluene
[16] = Example 5D, m-cresol as extraction solvent

Extr #2 % extract [1]: 71%
Extr #2 K UL/LL [1]: 1.429
Extr #2 LL-wt % [1]: 0.10 wt %
Molecule: 1-propanol [PrOH]

Molecule: OCCO [EG, ethylene glycol]
Extr #1 K UL/LL [2]: 0.37
Extr #1 LL-wt % [2]: 0.20 wt %
Extr #2 % extract [1]: −43%
Extr #2 K UL/LL [1]: 0.045
extraction from aqueous lower layer by MIBC (in words) [1]: not extracted
Extr #2 LL-wt % [1]: 0.29 wt %
Kow [3, 8]: 0.000
Kow ([3]; Ex 5B, MPP extraction solvent): 0.037
Kow [3, 9]: 0.079
Kow [3, 10]: 0.036

Extr #2 % extract [1]: 39%
Extr #2 LL-wt % [1]: 0.16 wt %
Molecule: CCO [EtOH, ethanol]

MIBC extraction partition coefficient [4]: 48.12
co-solvent lost to aqueous [3, 11]: 1%
Molecule: CC(C)CC(C)O (centres unmarked) [MIBC, methylisobutylcarbinol]

Molecule: CCCc1ccc(O)c(OC)c1 [MPP, 2-methoxy-4-propylphenol]
Kow UL/LL, partition coefficients for toluene extraction [5]: 33.59
MIBC extraction partition coefficient [4, 12]: >50
solubility in deionized water [6]: only partial solubility
partition coefficient, weight percent in organic layer extract vs. remaining lower layer aqueous fraction ([7]; Example 5E, 1 wt % MPP in deionized water extracted with one part toluene): 161.7
recovered by extraction from the aqueous phase ([7]; Example 5E, MPP as a 1% solution, toluene as solvent): More than 99%
apparent partition coefficient [7, 13]: 76
removed down to (residual in water) [7, 13]: 0.08 wt %
amount lost to the aqueous phase [3, 14]: 0.15 wt %
apparent partition coefficient between organic and aqueous layers [3, 14]: 612
extractant lost to the aqueous phase [3, 11]: 0.12 wt %
measured in the final organic extract [3, 11]: 55 wt %
oil/water partition coefficient [3, 11]: 462

Molecule: CO [MeOH, Methanol]
MIBC extraction partition coefficient [4, 12]: 0.30
Extr #1 LL-wt % [2]: 0.18 wt %
Extr #2 % extract [1]: 16%
Extr #2 LL-wt % [1]: 0.15 wt %

MIBC extraction partition coefficient [4]: 0.33
Extr #1 K UL/LL [2]: 0.33
Extr #1 LL-wt % [2]: 0.38 wt %
Extr #2 % extract [1]: −30%
Extr #2 K UL/LL [1]: 0.294
extraction from aqueous lower layer by MIBC (in words) [1]: not extracted
Extr #2 LL-wt % [1]: 0.49 wt %
Kow [3, 8]: 0.013
Kow ([3]; Ex 5B, MPP extraction solvent): 0.084
Kow [3, 9]: 0.042
Kow [3, 10]: 0.197
Molecule: CC(O)CO (centres unmarked) [PG, 1,2-propylene glycol]

Molecule: Cc1cccc(O)c1 [cresol, meta-cresol]
apparent partition coefficient between organic and aqueous phases [7, 15]: 20.8
residual left in the aqueous layer [7, 15]: 0.05 wt %
remained with the aqueous layer ([7]; Example 5H, 1% m-cresol solution extracted with heptane): 0.56 wt %
apparent partition coefficient between oil and water [3, 16]: 39
lost to the aqueous layer [3, 16]: 2.7 wt %

extraction solvent lost to the aqueous phase ([7]; Example 5F, heptane extraction): 0.07 wt %
extraction solvent lost to the aqueous layer ([7]; Example 5H, heptane extraction): 0.015%
Molecule: CCCCCCC [heptane]

Molecule: Cc1ccccc1 [toluene]
extraction solvent lost to the aqueous phase ([7]; Example 5G, toluene extraction): 0.04 wt %
loss of toluene extraction solvent ([7]; toluene extraction, lost to the lower layer): less than 1%

Molecule: Cc1cccc(C)c1O [xylenol, 2,6-xylenol]
collected in the upper layer (toluene phase) distillation, relative to the bottom phase distillation ([5]; after toluene extraction, separate distillation of phases): 99.5%
Kow UL/LL, partition coefficients for toluene extraction [5]: 51.79
MIBC extraction partition coefficient [4, 12]: 87.26
